Test results as given in patent US20220009920A1 (GB005, Inc., priority 2020, published 2022).

Key:
Assay in all cases: Large panel kinase profiling
Assay type in all cases: biochemical
Details in all cases: 1 μM test article, 1 mM ATP
NEK7 = target: T1, NEK7 (Homo sapiens, UniProt Q8TDX7)
T1 construct: AssayQuant Technologies, Inc. (assay service)
Summary of the method: (§1)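 With ATP fixed at 1 mM, each kinase was exposed to 1 μM compound in a PhosphoSens CSox-Sensor reaction. Sealed plates were incubated at 30° C. and read in kinetic mode.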

EPHA4 = EPHA4 (Homo sapiens, UniProt P54764)
Summary of the method: as §1

PRKAA2/AMPK211 = PRKAA2/AMPK211 (Homo sapiens, UniProt P54646)
Summary of the method: as §1

MAPK10/JNK3 = target: T2, MAPK10/JNK3 (Homo sapiens, UniProt P53779)
T2 construct: AssayQuant Technologies, Inc. (service provider)
Summary of the method: as §1

FRK = target: T3, FRK (Homo sapiens, UniProt P42685)
T3 construct: AssayQuant Technologies, Inc. (service provider)
Summary of the method: as §1

PDGFRA = PDGFRA (Homo sapiens, UniProt P16234)
Summary of the method: as §1

EPHB4 = target: T4, EPHB4 (Homo sapiens, UniProt P54760)
T4 sequence (P54760 16-987): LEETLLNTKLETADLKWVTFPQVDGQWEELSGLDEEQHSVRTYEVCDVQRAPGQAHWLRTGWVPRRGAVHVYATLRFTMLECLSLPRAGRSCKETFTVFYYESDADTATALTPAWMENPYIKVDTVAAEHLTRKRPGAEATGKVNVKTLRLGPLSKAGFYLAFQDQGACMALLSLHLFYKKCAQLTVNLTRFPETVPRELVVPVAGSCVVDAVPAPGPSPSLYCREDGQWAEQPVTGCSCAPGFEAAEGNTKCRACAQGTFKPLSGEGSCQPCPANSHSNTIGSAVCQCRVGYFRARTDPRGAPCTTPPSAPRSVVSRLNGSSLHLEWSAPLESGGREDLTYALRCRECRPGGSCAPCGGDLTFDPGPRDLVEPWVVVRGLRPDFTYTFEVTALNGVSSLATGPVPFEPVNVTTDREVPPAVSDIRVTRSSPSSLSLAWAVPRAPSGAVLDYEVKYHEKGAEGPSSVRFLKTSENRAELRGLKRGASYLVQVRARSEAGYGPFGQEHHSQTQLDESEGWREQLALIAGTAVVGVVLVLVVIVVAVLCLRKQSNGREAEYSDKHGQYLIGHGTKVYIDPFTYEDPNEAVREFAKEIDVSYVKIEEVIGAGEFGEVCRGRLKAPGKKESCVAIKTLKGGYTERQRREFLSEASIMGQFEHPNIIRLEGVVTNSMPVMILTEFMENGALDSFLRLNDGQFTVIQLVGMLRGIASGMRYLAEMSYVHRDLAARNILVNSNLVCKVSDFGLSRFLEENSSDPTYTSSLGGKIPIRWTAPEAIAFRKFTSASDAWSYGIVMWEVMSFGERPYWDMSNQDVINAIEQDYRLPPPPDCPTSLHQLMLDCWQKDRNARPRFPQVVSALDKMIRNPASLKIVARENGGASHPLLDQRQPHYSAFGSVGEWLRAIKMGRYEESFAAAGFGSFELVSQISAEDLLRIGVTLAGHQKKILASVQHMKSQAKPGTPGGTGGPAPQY
Summary of the method: as §1

RET = RET (Homo sapiens, UniProt P07949)
Summary of the method: as §1

CDK18 = target: T5, CDK18 (Homo sapiens, UniProt Q07002)
T5 construct: AssayQuant Technologies, Inc. (ran the panel)
Summary of the method: as §1

GRK1 = target: T6, GRK1 (Homo sapiens, UniProt Q15835)
T6 construct: AssayQuant Technologies, Inc. (service provider)
T6 sequence (Q15835 1-563): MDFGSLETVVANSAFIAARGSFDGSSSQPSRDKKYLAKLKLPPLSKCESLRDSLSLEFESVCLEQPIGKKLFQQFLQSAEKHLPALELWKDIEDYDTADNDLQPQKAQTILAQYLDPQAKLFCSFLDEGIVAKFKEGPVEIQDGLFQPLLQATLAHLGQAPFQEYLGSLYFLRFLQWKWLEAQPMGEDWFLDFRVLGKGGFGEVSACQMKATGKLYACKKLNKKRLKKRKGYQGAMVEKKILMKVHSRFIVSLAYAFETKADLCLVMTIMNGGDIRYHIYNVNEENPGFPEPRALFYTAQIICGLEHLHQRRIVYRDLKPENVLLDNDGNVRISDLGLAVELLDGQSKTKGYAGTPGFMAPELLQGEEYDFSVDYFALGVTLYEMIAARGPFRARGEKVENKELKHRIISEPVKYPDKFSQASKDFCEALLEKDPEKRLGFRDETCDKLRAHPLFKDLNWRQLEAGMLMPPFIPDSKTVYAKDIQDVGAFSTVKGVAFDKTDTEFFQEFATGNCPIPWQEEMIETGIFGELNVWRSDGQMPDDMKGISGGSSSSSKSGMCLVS
Summary of the method: as §1

T3 sequence (P42685 whole entry, species assumed): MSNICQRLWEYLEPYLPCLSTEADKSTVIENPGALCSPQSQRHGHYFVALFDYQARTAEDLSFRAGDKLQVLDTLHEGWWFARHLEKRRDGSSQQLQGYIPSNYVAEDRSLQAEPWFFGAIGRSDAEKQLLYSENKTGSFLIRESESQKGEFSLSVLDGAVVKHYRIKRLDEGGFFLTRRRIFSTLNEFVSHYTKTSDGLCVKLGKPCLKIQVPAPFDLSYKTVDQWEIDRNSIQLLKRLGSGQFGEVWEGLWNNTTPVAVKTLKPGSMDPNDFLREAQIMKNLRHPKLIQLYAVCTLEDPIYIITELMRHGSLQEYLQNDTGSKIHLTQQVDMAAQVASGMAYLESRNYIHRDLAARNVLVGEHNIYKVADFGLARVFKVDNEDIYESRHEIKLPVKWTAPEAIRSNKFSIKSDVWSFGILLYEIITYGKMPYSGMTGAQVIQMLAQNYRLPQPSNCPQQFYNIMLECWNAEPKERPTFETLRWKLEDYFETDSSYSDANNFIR
Chain of EPHA4 (P54764 20-986, species assumed): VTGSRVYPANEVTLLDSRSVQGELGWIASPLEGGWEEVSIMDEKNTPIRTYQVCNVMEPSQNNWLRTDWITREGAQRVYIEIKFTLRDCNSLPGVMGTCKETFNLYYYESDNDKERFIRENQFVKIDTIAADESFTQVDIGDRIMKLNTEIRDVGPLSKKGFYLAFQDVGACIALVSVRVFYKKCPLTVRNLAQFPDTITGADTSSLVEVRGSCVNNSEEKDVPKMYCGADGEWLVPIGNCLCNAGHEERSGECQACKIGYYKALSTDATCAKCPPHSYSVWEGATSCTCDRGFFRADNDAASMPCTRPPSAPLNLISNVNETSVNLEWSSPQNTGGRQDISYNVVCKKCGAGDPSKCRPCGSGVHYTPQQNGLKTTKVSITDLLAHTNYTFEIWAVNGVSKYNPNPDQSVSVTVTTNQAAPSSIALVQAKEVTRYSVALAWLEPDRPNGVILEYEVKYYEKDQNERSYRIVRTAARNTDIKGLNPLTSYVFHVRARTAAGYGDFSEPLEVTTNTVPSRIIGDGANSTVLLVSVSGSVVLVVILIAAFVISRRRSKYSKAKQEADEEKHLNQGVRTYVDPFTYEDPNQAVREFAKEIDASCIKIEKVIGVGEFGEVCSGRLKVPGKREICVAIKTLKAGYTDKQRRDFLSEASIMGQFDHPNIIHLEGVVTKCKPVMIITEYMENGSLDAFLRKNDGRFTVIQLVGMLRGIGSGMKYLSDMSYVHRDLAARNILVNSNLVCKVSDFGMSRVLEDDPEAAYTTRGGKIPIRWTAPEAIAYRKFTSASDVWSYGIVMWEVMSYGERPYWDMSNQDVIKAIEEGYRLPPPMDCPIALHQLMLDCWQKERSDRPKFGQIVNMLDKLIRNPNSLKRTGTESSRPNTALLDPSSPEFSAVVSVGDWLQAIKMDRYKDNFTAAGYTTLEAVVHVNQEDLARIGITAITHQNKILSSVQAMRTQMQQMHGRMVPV
T2 sequence (P53779 whole entry): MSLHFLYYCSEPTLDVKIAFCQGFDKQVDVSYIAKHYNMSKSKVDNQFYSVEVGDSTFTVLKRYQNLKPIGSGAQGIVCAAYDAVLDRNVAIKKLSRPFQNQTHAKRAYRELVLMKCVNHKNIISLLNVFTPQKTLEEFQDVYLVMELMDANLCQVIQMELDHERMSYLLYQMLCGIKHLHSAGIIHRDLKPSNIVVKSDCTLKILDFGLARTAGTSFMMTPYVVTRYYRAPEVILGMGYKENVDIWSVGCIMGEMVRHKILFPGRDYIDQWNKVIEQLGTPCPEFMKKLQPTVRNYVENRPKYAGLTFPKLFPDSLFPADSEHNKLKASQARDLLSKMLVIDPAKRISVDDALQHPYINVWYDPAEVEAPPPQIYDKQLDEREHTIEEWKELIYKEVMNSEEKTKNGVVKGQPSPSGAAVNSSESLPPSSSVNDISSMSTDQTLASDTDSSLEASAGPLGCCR
Chain of PRKAA2/AMPK211 (P54646 whole entry, species assumed): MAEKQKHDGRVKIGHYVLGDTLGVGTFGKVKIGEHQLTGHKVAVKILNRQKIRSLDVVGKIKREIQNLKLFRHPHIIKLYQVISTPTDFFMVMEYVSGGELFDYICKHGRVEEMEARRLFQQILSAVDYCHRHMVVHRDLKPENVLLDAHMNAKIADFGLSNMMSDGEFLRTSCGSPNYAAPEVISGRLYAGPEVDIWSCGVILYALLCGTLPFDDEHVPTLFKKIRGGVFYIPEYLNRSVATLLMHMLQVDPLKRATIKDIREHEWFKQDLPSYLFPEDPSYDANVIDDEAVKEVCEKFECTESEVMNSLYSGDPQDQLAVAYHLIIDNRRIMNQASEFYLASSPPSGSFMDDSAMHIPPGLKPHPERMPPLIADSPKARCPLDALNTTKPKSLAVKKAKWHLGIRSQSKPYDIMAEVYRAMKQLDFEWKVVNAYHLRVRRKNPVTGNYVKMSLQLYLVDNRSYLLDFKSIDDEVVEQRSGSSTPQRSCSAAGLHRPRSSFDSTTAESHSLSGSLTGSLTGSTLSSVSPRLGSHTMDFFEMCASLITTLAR
Chain of PRKAA2/AMPK211 (Q9Y478 whole entry partner, species assumed): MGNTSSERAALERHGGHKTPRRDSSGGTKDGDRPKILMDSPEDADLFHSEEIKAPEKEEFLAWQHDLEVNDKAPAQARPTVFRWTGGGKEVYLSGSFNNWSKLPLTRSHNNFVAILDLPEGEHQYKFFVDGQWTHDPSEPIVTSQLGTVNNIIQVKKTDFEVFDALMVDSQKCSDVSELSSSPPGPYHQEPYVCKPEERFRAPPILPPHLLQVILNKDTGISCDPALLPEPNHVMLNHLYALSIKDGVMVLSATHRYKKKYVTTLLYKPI
Chain of PRKAA2/AMPK211 (P54619 whole entry partner, species assumed): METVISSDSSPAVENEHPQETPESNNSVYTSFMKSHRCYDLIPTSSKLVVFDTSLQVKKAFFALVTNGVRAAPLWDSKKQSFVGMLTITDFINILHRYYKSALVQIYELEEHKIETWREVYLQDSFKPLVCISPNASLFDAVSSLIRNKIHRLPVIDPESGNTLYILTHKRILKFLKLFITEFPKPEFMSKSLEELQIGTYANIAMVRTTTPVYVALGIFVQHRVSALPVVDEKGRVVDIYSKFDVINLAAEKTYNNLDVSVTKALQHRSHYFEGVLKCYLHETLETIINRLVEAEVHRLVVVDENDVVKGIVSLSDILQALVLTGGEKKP
Chain of RET (P07949 29-1114, species assumed): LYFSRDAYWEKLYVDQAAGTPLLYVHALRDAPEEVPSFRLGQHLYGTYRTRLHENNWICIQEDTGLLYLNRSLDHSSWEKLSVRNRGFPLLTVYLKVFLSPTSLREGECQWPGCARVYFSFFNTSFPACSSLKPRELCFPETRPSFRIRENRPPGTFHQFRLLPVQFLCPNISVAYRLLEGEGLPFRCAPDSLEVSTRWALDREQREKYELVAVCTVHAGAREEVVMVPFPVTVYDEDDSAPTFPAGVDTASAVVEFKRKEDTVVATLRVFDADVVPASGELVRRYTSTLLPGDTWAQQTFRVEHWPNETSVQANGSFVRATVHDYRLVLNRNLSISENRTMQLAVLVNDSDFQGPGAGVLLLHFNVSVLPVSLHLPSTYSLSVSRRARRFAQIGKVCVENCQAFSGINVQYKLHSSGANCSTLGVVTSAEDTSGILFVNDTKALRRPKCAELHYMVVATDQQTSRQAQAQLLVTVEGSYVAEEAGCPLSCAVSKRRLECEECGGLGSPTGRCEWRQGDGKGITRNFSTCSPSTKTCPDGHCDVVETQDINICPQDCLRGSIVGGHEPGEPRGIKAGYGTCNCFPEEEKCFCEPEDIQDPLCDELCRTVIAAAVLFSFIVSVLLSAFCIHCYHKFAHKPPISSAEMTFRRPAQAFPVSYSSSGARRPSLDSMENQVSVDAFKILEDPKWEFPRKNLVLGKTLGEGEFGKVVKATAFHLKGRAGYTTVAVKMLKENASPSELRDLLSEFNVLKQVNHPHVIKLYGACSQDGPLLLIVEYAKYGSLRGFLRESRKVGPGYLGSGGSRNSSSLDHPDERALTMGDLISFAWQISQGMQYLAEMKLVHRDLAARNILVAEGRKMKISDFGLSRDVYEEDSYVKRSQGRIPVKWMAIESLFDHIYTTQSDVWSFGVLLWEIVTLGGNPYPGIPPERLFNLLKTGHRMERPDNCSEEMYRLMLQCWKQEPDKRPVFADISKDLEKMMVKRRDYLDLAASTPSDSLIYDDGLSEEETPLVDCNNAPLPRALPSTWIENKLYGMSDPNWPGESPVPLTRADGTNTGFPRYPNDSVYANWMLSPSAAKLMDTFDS
T1 sequence (Q8TDX7 whole entry, species assumed): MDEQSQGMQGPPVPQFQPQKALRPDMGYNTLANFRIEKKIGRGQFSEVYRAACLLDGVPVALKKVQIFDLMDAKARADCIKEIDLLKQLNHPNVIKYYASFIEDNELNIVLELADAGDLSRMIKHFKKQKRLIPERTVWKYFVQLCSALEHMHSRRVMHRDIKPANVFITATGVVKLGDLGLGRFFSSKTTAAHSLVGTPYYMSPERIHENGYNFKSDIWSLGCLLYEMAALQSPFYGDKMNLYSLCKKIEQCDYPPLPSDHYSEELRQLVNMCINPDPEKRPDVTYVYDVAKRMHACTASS

| SMILES | inhibition at 1 µM (NEK7) | inhibition at 1 µM (EPHA4) | inhibition at 1 µM (PRKAA2/AMPK211) | inhibition at 1 µM (MAPK10/JNK3) | inhibition at 1 µM (FRK) | inhibition at 1 µM (PDGFRA) | inhibition at 1 µM (EPHB4) | inhibition at 1 µM (RET) | inhibition at 1 µM (CDK18) | inhibition at 1 µM (GRK1) |
| --- | --- | --- | --- | --- | --- | --- | --- | --- | --- | --- |
| C=CC(=O)N1CCCC(c2c(F)cc(C(N)=O)c3[nH]c4c(c23)CCCCC4)C1 (single isomer, unassigned) [Compound 5-6] | 14.6% | 4.2% | -24.4% | -13% | 4.2% | -26.6% | 7% | -24% | 19% | 16.4% |
| C=CC(=O)N1CCC[C@@H](c2c(F)cc(C(N)=O)c3[nH]c4c(c23)CC2(CC4)CC2)C1 [Compound 6-2, (S)-5-(1-acryloylpiperidin-3-yl)-6-fluoro-1,2,4,9-tetrahydrospiro[carbazole-3,1′-cyclopropane]-8-carboxamide] | 13.8% | 4.9% | 28.8% | 32.1% | -2.8% | 23.9% | 7.4% | 23% | -15% | -46.1% |
| C=CC(=O)N1CCC[C@@H](c2c(F)cc(C(N)=O)c3[nH]c4c(c23)CCC4)C1 [Compound 10-2, (S)-8-(1-acryloylpiperidin-3-yl)-7-fluoro-1,2,3,4-tetrahydrocyclo-penta[b]indole-5-carboxamide] | -22.6% | -44.2% | 36.6% | -4% | -4.1% | 2.1% | -8.5% | 6% | 2% | -1.4% |
